Test results taken from ChEMBL document CHEMBL3612044, “Phosphate Chemical Probes Designed for Location Specific Inhibition of Intracellular Carbonic Anhydrases” (J Med Chem, 2015).

Target: Carbonic anhydrase 9 (Homo sapiens, UniProt Q16790)
Assay: Inhibition of human carbonic anhydrase-9 by stopped-flow CO2 hydration assay

Row | SMILES | Ki [nM]
1 | CC(=O)O[C@@H]1[C@@H](OC(C)=O)[C@H](n2cc(-c3ccc(S(N)(=O)=O)cc3)nn2)O[C@H](COP2(=O)OCc3ccccc3O2)[C@H]1OC(C)=O (stereo not given in full) | 84.3
2 | CC(=O)O[C@@H]1[C@@H](OC(C)=O)[C@H](n2cc(-c3ccc(S(N)(=O)=O)cc3)nn2)O[C@H](COP(=O)(OCCSC(=O)C(C)(C)C)OCCSC(=O)C(C)(C)C)[C@H]1OC(C)=O | 135
3 | CC(=O)O[C@@H]1[C@@H](OC(C)=O)[C@H](S(N)(=O)=O)O[C@H](COP(=O)(OCCSC(=O)C(C)(C)C)OCCSC(=O)C(C)(C)C)[C@H]1OC(C)=O | 154

Further lines, results first:

Row | Ki [nM] | SMILES
4 | 248 | NS(=O)(=O)c1ccc(-c2cn([C@@H]3O[C@H](COP(=O)(O)O)[C@@H](O)[C@H](O)[C@H]3O)nn2)cc1
5 | 213 | NS(=O)(=O)[C@@H]1O[C@H](COP(=O)(O)O)[C@@H](O)[C@H](O)[C@H]1O
